Test results taken from patent US8779151B2, “Orally bioavailable caffeic acid related anticancer drugs” (The Board of Regents of the University of Texas System, priority 2006, dated 2014).
pIC50: −log10 of the molar value.

Tests used:
[1] = system: subcutaneous malignant glioma xenografts; settings: cited from earlier work
[2] = system: U87-MG cells; settings: cited from earlier work
[3] = system: human malignant glioma U87-MG and U373-MG cells; settings: cited from earlier work
[4] = system: constitutively activated STAT3 in Colo357-FG cells; assay: Western blot of phosphorylated STAT3 (Tyr705) and total STAT3 in Colo357-FG cells (FIG. 1); format: cell-based, human
From the text: Cultured pancreatic cancer cells treated with different times and concentrations of WP compounds or DMSO (solvent) were lysed in lysis buffer and equal amounts of protein extracts were fractionated by sodium dodecyl sulfate polyacrylamide gel electrophoresis and transferred to Hybond-P membranes. Membranes were immuno-blotted using phospho-specific STAT3, total STAT3, Bcl-xL, survivin, PARP, caspase-8 and GADPH antibodies. The primary antibodies were visualized with goat anti-rabbit or goat anti-mouse peroxidase-conjugated antibodies using an enhanced […] (ECF) system and a Molecular Dynamics Storm PhosphorImager.

[5] = system: U373-MG cells; settings: cited from earlier work
[6] = system: STAT3; assay: Inhibition of STAT3 phosphorylation, WP1193 compared with WP1066 (FIG. 34); format: cell-based

Compound | phosphorylated STAT3 levels in excised tumors (immunohistochemical analysis) ([1]; 3 weeks after the final WP1066 injection, versus control group) | growth of subcutaneous malignant glioma xenografts ([1]; mice, systemic intraperitoneal administration, 30-day follow-up period) | pIC50 [2] | increase in potency over that of AG490 ([2]; versus AG490) | Bax, c-myc, Bcl-XL, Mcl-1 and apoptosis [3] | inhibition of constitutively activated STAT3 (phospho-Tyr705 versus total STAT3) [4] | pIC50 [5] | increase in potency over that of AG490 ([5]; versus AG490) | inhibition of STAT3 phosphorylation relative to WP1066 [6]
C[C@H](NC(=O)/C(C#N)=C/c1cccc(Br)n1)c1ccccc1 [WP1066] | remained inhibited | significantly (P<0.001) inhibited the growth | 5.25 | 18 fold | activated Bax, suppressed the expression of c-myc, Bcl-XL and Mcl-1, and induced apoptosis | Inhibition of constitutively activated STAT3 | 5.43 | eightfold | –
N#C/C(=C\c1cccc(Br)n1)C(=O)N[C@H](c1ccccc1)C1CC1 [WP1193, (E)-3-(6-bromopyridin-2-yl)-2-cyano-N-((S)-cyclopropyl(phenyl)methyl)acrylamide] | – | – | – | – | – | Inhibition of constitutively activated STAT3 | – | – | more potently than WP1066
